Measured values from article PMC6320911, “Discovery of a Natural Syk Inhibitor from Chinese Medicine through a Docking-Based Virtual Screening and Biological Assay Study” (Molecules, 2018).

Molecular target: T1, Spleen tyrosine kinase (Syk) (Homo sapiens, UniProt P43405)
T1 construct: Syk (ab60886)
Test: ADP-Glo luminescent kinase assay with dose-response ([…] ATP in substrate solution, poly Glu:Tyr […])
Assay type: biochemical

- IC50: 1.64 µM
Structure (SMILES): Cc1coc2c1C(=O)C(=O)c1c-2ccc2c(C)cccc12 [compound 13, Tanshinone I]
